Laboratory results taken from patent US10316035B2, “Triazolopyridine inhibitors of myeloperoxidase” (BRISTOL-MYERS SQUIBB COMPANY, priority 2015, dated 2019).

Target: T1, myeloperoxidase (MPO) (Homo sapiens, UniProt P05164)
T1 sequence (P05164 49-745): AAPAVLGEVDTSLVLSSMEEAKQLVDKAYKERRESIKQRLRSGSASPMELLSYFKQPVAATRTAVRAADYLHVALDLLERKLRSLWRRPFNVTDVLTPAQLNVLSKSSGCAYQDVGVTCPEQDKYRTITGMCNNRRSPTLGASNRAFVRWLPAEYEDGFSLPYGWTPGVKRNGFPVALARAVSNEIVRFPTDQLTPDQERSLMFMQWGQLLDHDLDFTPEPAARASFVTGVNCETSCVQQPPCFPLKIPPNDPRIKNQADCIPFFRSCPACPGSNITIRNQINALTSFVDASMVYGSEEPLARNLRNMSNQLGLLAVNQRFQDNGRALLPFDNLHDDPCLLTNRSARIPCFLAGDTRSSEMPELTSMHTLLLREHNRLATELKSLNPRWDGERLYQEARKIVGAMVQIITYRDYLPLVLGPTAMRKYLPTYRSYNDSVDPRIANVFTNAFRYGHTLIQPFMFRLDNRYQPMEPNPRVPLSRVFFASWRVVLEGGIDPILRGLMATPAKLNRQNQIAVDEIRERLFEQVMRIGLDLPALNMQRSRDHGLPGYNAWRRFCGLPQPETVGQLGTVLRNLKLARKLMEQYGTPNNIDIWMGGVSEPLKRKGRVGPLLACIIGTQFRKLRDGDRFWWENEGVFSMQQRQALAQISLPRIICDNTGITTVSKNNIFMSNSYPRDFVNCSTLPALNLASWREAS
Test: MPO peroxidation assay (Amplex Red assay)
Format: biochemical
Conditions: MPO peroxidation, potency range class; read-out: Amplex Red IC50
How it was run: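 Peroxidase turnover of Amplex Red to fluorescent resorufin (Ex 535/Em 590 nm) was followed for 15 min in 100 mM KPi, pH 7.4, after 10 min room-temperature preincubation of compound with 200 pM enzyme plus 40 nM H2O2. The substrate mix contained 200 μM Amplex Red and 10 mM H2O2. IC50s came from linear-phase rates (180–540 s) fitted with a Hill equation.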

Row | IC50 [nM] | Compound
1 | 1 to 100 | COc1ncc(-c2ccc(COc3cc(N)nc4[nH]nnc34)c(C#N)c2)cc1F [Example 323, 2-(((5-amino-3H-[1,2,3]triazolo[4,5-b]pyridin-7-yl)oxy)methyl)-5-(5-fluoro-6-methoxypyridin-3-yl)benzonitrile]
2 | 1 to 100 | N#Cc1cc(-c2ccc(F)nc2F)ccc1COc1cc(N)nc2[nH]nnc12 [Example 324, 2-(((5-amino-3H-[1,2,3]triazolo[4,5-b]pyridin-7-yl)oxy)methyl)-5-(2,6-difluoropyridin-3-yl)benzonitrile]
3 | 1 to 100 | N#Cc1ccc(-c2ccc(COc3cc(N)nc4[nH]nnc34)c(C#N)c2)cn1 [Example 325, 5-(4-(((5-amino-3H-[1,2,3]triazolo[4,5-b]pyridin-7-yl)oxy)methyl)-3-cyanophenyl) picolinonitrile]
4 | 1 to 100 | N#Cc1cc(-c2ccc(N3CCCC3)nc2)ccc1COc1cc(N)nc2[nH]nnc12 [Example 326, 2-(((5-amino-3H-[1,2,3]triazolo[4,5-b]pyridin-7-yl)oxy)methyl)-5-(6-(pyrrolidin-1-yl)pyridin-3-yl)benzonitrile]
5 | 1 to 100 | N#Cc1cc(-c2ccc(N3CCNCC3)nc2)ccc1COc1cc(N)nc2[nH]nnc12 [Example 327, 2-(((5-amino-3H-[1,2,3]triazolo[4,5-b]pyridin-7-yl)oxy)methyl)-5-(6-(piperazin-1-yl)pyridin-3-yl)benzonitrile]
6 | 1 to 100 | N#Cc1cc(-c2ccc(CN)nc2)ccc1COc1cc(N)nc2[nH]nnc12 [Example 328, 2-(((5-amino-3H-[1,2,3]triazolo[4,5-b]pyridin-7-yl)oxy)methyl)-5-(6-(aminomethyl)pyridin-3-yl)benzonitrile]
7 | 1 to 100 | N#Cc1cc(-c2cnc(N3CCNCC3)nc2)ccc1COc1cc(N)nc2[nH]nnc12 [Example 329, 2-(((5-amino-3H-[1,2,3]triazolo[4,5-b]pyridin-7-yl)oxy)methyl)-5-(2-(piperazin-1-yl)pyrimidin-5-yl)benzonitrile]
8 | 1 to 100 | N#Cc1cc(-c2ccc(F)nc2)ccc1COc1cc(N)nc2[nH]nnc12 [Example 330, 2-(((5-amino-3H-[1,2,3]triazolo[4,5-b]pyridin-7-yl)oxy)methyl)-5-(6-fluoropyridin-3-yl)benzonitrile]
9 | 1 to 100 | Nc1cc(OCc2c(F)cc(-c3cccnc3)cc2F)c2nn[nH]c2n1 [Example 332, 7-((2,6-difluoro-4-(pyridin-3-yl)benzyl)oxy)-3H-[1,2,3] triazolo[4,5-b]pyridin-5-amine]
10 | 1 to 100 | COc1ccc(-c2cc(F)c(COc3cc(N)nc4[nH]nnc34)c(F)c2)cn1 [Example 333, 7-((2,6-difluoro-4-(6-methoxypyridin-3-yl)benzyl)oxy)-3H-[1,2,3]triazolo[4,5-b] pyridin-5-amine]
11 | 1 to 100 | Nc1cc(OCc2c(F)cc(-c3ccc(N4CCOCC4)nc3)cc2F)c2nn[nH]c2n1 [Example 335, 7-((2,6-difluoro-4-(6-morpholinopyridin-3-yl)benzyl)oxy)-3H-[1,2,3]triazolo[4,5-b] pyridin-5-amine]
12 | 1 to 100 | Nc1ccc(-c2cc(F)c(COc3cc(N)nc4[nH]nnc34)c(F)c2)cn1 [Example 337, 7-((4-(6-aminopyridin-3-yl)-2,6-difluorobenzyl)oxy)-3H-[1,2,3]triazolo[4,5-b] pyridin-5-amine]
13 | 1 to 100 | N#Cc1ccc(-c2cc(F)c(COc3cc(N)nc4[nH]nnc34)c(F)c2)cn1 [Example 338, 5-(4-(((5-amino-3H-[1,2,3]triazolo[4,5-b]pyridin-7-yl)oxy)methyl)-3,5-difluorophenyl) picolinonitrile]
14 | 101 to 999 | Nc1cc(OCc2c(F)cc(-c3ccc(OCc4ccccc4)nc3)cc2F)c2nn[nH]c2n1 [Example 339, 7-((4-(6-(benzyloxy)pyridin-3-yl)-2,6-difluorobenzyl)oxy)-3H-[1,2,3]triazolo[4,5-b] pyridin-5-amine]
15 | 101 to 999 | Nc1cc(OCc2c(F)cc(-c3ccc(F)nc3F)cc2F)c2nn[nH]c2n1 [Example 340, 7-((4-(2,6-difluoropyridin-3-yl)-2,6-difluorobenzyl)oxy)-3H-[1,2,3]triazolo[4,5-b]pyridin-5-amine]
16 | 1 to 100 | NC(=O)c1ccc(-c2cc(F)c(COc3cc(N)nc4[nH]nnc34)c(F)c2)cn1 [Example 341, 5-(4-(((5-amino-3H-[1,2,3]triazolo[4,5-b]pyridin-7-yl)oxy)methyl)-3,5-difluorophenyl) picolinamide]
17 | 1 to 100 | Nc1cc(OCc2c(F)ccc(-c3ccc(N4CCOCC4)nc3)c2Cl)c2nn[nH]c2n1 [Example 342, 7-((2-chloro-6-fluoro-3-(6-morpholinopyridin-3-yl)benzyl)oxy)-3H-[1,2,3]triazolo[4,5-b] pyridin-5-amine]
18 | 1 to 100 | Nc1cncc(-c2ccc(F)c(COc3cc(N)nc4[nH]nnc34)c2Cl)c1 [Example 343, 7-((3-(5-aminopyridin-3-yl)-2-chloro-6-fluorobenzyl)oxy)-3H-[1,2,3]triazolo[4,5-b] pyridin-5-amine]
19 | 1 to 100 | Nc1cc(OCc2c(F)ccc(-c3ccc(N4CCNCC4)nc3)c2Cl)c2nn[nH]c2n1 [Example 344, 7-((2-chloro-6-fluoro-3-(6-(piperazin-1-yl)pyridin-3-yl)benzyl)oxy)-3H-[1,2,3]triazolo [4,5-b]pyridin-5-amine]
20 | 101 to 999 | CN1CCN(c2ccc(-c3ccc(F)c(COc4cc(N)nc5[nH]nnc45)c3)cn2)CC1 [Example 346, 7-((2-fluoro-5-(6-(4-methylpiperazin-1-yl)pyridin-3-yl)benzyl)oxy)-3H-[1,2,3]triazolo [4,5-b]pyridin-5-amine]
21 | 1 to 100 | Nc1cc(OCc2cc(-c3ccc(CO)nc3)ccc2F)c2nn[nH]c2n1 [Example 347, (5-(3-(((5-amino-3H-[1,2,3]triazolo[4,5-b]pyridin-7-yl)oxy)methyl)-4-fluorophenyl)pyridin-2-yl)methanol]
22 | 101 to 999 | CN1CCN(c2ncc(-c3ccc(F)c(COc4cc(N)nc5[nH]nnc45)c3Cl)cn2)CC1 [Example 348, 7-((2-chloro-6-fluoro-3-(2-(4-methylpiperazin-1-yl)pyrimidin-5-yl)benzyl)oxy)-3H-[1,2,3]triazolo[4,5-b] pyridin-5-amine]
23 | 101 to 999 | N#Cc1cc(-c2ccc(N3CCNC(=O)C3)nc2)ccc1COc1cc(N)nc2[nH]nnc12 [Example 349, 2-(((5-Amino-3H-[1,2,3]triazolo[4,5-b]pyridin-7-yl)oxy)methyl)-5-(6-(3-oxopiperazin-1-yl)pyridin-3-yl)benzonitrile]
24 | 1 to 100 | CC1CN(c2ccc(-c3ccc(COc4cc(N)nc5[nH]nnc45)c(C#N)c3)cn2)CC(C)N1 (stereo not drawn) [Example 350, 2-(((5-Amino-3H-[1,2,3]triazolo[4,5-b]pyridin-7-yl)oxy)methyl)-5-(6-(3,5-dimethylpiperazin-1-yl)pyridin-3-yl)benzonitrile]
25 | 1 to 100 | N#Cc1ccc(OC(F)F)cc1COc1cc(N)nc2[nH]nnc12 [Example 351, 2-(((5-amino-3H-[1,2,3]triazolo[4,5-b]pyridin-7-yl)oxy)methyl)-4-(difluoromethoxy)benzonitrile]
26 | 1 to 100 | N#Cc1ccc(OC2CC2)cc1COc1cc(N)nc2[nH]nnc12 [Example 352, 2-(((5-amino-3H-[1,2,3]triazolo[4,5-b]pyridin-7-yl)oxy)methyl)-4-cyclopropoxybenzonitrile]

Row | Compound | IC50 [nM]
27 | COc1ccccc1CNC(=O)c1ccc(COc2cc(N)nc3[nH]nnc23)c(Cl)c1 [Example 331, 4-((5-amino-3H-[1,2,3]triazolo[4,5-b]pyridin-7-yloxy)methyl)-3-chloro-N-(2-methoxybenzyl) benzamide] | 1 to 100
